One series can be described thus: in vivo. Particulars: female, albino, rabbit.
The next series deals with macula edema patient. The experiment in a line: Treatment of macular edema with intravitreal TKI composition (ETDRS visual acuity chart). The format is in vivo, human. Particulars: twelve months after first injection; 1 mg intravitreal every 4 months; high viscosity hyaluronate solution such as Example 13 formulation. On the procedure: An obese patient with symptoms of diabetes presents with vision loss due to macula edema with central retinal vein occlusion and/or branch retinal vein occlusion. They receive intravitreal injection of 1 mg of a high viscosity TKI (polymeric hyaluronate based) solution containing COMPOUND F, such as the Example 13 formulation. Equivalent injections are made every 4 months.

Method for in vivo: Vitreous humor samples (n=4 eyes per timepoint) were collected at 0.5, 1, 2, 4, 8, and 12 hr postdose. The TKI concentration in the vitreous humor was determined using a liquid chromatography tandem mass spectrometry method (LC-MS/MS).

In general, AUC(0-t) refers to exposure summed from dosing to a finite time, without extrapolation to infinity. A word on the Vd: it is the apparent volume that relates the amount in the body to the concentration in plasma or blood. A low value points to confinement near the circulation. As usually defined, the clearance is the rate of elimination divided by the concentration. A word on the half-life: it is the time in which the quantity being followed falls by half. A high value points to slow loss. In the series “in vivo”, `Nc1ccc2c(c1)/C(=C1\C(=O)Nc3ccc(Cl)cc31)OC2` [COMPOUND A, 3-(6-Amino-3H-isobenzofuran-1-ylidene)-5-chloro-1,3-dihydro-indol-2-one] had an AUC(0-t) of 0.778 µg·h/mL, a C0 of 0.566 µg/mL, a Vd of 0.000705 L and a clearance of 0.00433 mL/min. The same molecule gave a half-life in “in vivo” of 2.59 h.

As for `Cc1cc(C(=O)Nc2cccc(C#Cc3cncc(C(=O)N=S(C)(=O)c4ccc(CCC(=O)O)cc4)c3)c2)n(C)n1` (stereo not drawn) [COMPOUND F], in the series on macula edema patient, the “improved best corrected visual acuity from baseline (ETDRS chart)” value is “fifteen”.

(Values after patent US8642067B2, “Methods and compositions for intraocular administration to treat ocular conditions” (Allergen, Inc., priority 2007, dated 2014).)
